pIC50, pKi: −log10 of the molar value.
Tests used:
[1] = biological target: T1, 5-hydroxytryptamine receptor 6 (Homo sapiens, UniProt P50406); experiment: Binding affinity against cloned human 5-hydroxytryptamine 6 receptor expressed in HeLa cells using [3H]LSD; type: cell-based
[2] = biological target: T1, 5-hydroxytryptamine receptor 6; experiment: Inhibitory concentration against 5-HT stimulated cAMP production in HeLa cells stably transfected with human 5-HT6 receptor; type: functional, cell-based
D(3) dopamine receptor [3] = biological target: T2, D(3) dopamine receptor (Homo sapiens, UniProt P35462); experiment: Inhibition of [3H]spiperone binding to human cloned Dopamine receptor D3 stably expressed in CHO-K1 cells at 1 uM; type: cell-based
T2 sequence (P35462 whole entry): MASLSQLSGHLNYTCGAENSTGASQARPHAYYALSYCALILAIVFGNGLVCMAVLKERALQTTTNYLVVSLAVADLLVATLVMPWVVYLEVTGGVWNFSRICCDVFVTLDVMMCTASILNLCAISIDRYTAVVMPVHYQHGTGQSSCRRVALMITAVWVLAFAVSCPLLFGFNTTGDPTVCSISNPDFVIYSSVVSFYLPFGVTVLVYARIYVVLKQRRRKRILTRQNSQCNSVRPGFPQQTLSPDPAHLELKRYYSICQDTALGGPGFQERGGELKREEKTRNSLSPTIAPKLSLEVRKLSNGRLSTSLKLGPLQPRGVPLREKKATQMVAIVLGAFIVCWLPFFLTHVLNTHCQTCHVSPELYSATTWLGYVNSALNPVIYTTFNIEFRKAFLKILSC

D(2) dopamine receptor [4] = biological target: T3, D(2) dopamine receptor (Homo sapiens, UniProt P14416); experiment: Inhibition of [3H]spiperone binding to human cloned Dopamine receptor D2 stably expressed in CHO-K1 cells at 1 uM; type: cell-based
T3 sequence (P14416 whole entry): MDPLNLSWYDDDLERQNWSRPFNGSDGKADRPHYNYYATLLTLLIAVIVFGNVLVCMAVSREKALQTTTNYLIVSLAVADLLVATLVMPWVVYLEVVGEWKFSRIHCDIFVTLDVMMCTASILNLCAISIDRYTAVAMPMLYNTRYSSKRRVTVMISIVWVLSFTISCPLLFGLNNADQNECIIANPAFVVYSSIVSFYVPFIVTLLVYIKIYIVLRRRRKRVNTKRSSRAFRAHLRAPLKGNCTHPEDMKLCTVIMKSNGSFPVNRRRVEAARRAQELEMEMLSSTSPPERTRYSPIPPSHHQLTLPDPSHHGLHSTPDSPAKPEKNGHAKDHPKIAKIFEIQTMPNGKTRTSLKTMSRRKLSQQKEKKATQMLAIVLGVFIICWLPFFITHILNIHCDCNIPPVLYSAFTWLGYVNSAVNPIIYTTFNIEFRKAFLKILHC

[5] = biological target: 5-hydroxytryptamine receptor 7 (Homo sapiens, UniProt P34969); experiment: Binding affinity against human cloned 5-hydroxytryptamine 7 receptor stably expressed in CHO cells using [3H]LSD; type: cell-based
Chain of 5-hydroxytryptamine receptor 7 (P34969 whole entry): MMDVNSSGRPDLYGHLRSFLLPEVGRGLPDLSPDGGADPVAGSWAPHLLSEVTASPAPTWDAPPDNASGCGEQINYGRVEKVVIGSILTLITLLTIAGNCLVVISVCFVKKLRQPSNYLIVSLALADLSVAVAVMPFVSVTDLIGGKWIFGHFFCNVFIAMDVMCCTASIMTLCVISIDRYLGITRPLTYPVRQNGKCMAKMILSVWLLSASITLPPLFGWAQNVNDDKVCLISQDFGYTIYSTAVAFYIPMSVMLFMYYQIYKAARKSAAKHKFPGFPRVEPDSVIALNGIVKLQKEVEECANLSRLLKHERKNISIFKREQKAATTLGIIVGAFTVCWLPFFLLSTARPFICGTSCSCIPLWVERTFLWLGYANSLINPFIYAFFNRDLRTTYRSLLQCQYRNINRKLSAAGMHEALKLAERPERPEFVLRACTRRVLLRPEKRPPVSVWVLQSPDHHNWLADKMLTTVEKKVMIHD

[6] = biological target: T4, D(4) dopamine receptor (Homo sapiens) (UniProt P21917); experiment: Inhibition of [3H]spiperone binding to human cloned Dopamine receptor D4 stably expressed in CHO-K1 cells at 1 uM; type: cell-based
T4 sequence (whole entry): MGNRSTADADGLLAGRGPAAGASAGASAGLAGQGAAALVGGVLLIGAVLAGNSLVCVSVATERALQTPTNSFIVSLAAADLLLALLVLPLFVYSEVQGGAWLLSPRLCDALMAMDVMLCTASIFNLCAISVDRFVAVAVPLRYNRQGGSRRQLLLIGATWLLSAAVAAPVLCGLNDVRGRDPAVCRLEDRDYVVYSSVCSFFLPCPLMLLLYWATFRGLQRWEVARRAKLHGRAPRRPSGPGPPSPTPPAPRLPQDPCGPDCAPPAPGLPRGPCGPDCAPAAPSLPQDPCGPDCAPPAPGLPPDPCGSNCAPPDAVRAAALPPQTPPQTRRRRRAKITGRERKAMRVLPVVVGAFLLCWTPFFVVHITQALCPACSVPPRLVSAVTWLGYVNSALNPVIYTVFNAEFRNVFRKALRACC

[7] = biological target: T5, 5-hydroxytryptamine receptor 1F (Homo sapiens) (UniProt P30939); experiment: Inhibition of [3H]-5-HT binding to human cloned 5-hydroxytryptamine 1F receptor stably expressed in CHO cells at 1 uM; type: cell-based
T5 sequence (whole entry): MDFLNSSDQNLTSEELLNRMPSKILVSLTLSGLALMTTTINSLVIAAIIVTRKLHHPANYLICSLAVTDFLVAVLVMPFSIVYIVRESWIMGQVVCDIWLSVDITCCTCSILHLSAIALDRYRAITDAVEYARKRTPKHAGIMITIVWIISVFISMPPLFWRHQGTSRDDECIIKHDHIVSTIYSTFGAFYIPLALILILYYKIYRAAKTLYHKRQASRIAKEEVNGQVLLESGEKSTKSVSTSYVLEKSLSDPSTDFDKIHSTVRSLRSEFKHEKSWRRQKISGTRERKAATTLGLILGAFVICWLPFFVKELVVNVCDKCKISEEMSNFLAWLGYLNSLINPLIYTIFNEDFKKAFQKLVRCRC

[8] = biological target: T6, 5-hydroxytryptamine receptor 1A (Homo sapiens, UniProt P08908); experiment: Binding affinity against human cloned 5-hydroxytryptamine 1A receptor stably expressed in CHO cells using DPAT
T6 sequence (P08908 whole entry): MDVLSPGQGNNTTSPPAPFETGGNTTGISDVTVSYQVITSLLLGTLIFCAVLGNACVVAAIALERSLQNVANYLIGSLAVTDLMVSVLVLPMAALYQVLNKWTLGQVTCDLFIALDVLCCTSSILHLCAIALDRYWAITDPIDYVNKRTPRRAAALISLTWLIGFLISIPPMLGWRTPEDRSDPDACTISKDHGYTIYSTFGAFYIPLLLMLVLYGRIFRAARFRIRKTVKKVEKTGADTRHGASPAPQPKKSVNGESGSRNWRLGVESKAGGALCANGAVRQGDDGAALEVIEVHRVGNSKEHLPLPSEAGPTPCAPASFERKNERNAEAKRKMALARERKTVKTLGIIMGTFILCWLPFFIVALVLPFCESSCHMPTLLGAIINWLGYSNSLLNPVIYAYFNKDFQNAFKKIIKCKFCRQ

[9] = biological target: 5-hydroxytryptamine receptor 2A (Homo sapiens, UniProt P28223); experiment: Inhibition of [125I]DOI binding to human cloned 5-hydroxytryptamine 2A receptor stably expressed in CHO cells at 1 uM; type: cell-based
Chain of 5-hydroxytryptamine receptor 2A (P28223 whole entry): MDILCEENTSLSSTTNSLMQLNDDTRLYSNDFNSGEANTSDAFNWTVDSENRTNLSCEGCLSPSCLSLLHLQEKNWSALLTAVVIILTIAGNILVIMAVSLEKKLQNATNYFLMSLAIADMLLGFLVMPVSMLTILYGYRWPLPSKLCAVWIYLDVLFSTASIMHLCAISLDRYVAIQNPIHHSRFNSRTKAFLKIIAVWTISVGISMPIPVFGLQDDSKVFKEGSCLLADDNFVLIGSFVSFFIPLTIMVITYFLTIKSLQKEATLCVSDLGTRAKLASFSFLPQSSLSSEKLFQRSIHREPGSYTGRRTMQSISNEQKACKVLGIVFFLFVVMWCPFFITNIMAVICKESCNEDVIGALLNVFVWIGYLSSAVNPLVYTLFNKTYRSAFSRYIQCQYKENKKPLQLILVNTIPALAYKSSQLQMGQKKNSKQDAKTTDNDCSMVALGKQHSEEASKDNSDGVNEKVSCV

[10] = biological target: T7, 5-hydroxytryptamine receptor 2C (Homo sapiens) (UniProt P28335); experiment: Inhibition of [3H]5-HT binding to human cloned 5-hydroxytryptamine 2C receptor stably expressed in CHO cells at 1 uM; type: cell-based
T7 sequence (whole entry): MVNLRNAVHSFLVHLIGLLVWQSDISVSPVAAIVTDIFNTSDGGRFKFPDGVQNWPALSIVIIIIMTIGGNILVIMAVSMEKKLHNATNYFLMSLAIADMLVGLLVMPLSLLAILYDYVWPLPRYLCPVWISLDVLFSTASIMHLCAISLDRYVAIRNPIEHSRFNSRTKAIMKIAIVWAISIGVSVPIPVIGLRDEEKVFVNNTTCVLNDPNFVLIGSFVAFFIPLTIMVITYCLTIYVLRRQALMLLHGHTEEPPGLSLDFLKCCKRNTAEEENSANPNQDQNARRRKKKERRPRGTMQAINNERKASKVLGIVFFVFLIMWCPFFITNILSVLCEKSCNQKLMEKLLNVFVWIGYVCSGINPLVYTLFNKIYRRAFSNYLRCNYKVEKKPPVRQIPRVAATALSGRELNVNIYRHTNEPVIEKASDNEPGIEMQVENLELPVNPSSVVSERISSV

[11] = biological target: 5-hydroxytryptamine receptor 1D (Homo sapiens) (UniProt P28221); experiment: Inhibition of [3H]5-HT binding to human cloned 5-hydroxytryptamine 1D receptor stably expressed in CHO cells at 1 uM; type: cell-based
Chain of 5-hydroxytryptamine receptor 1D (Homo sapiens) (P28221 whole entry): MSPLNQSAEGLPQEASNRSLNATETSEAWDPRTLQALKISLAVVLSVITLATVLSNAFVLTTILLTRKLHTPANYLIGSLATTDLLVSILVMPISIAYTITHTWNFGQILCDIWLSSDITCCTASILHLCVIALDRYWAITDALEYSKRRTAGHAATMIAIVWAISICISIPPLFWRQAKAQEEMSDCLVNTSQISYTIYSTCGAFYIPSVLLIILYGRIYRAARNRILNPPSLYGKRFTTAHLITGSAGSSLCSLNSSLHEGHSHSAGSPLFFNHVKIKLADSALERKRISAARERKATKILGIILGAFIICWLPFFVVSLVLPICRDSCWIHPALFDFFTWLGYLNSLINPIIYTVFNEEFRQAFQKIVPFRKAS

[12] = biological target: 5-hydroxytryptamine receptor 1B (Homo sapiens) (UniProt P28222); experiment: Inhibition of [3H]-5-HT binding to human cloned 5-hydroxytryptamine 1B receptor stably expressed in CHO cells at 1 uM; type: cell-based
Chain of 5-hydroxytryptamine receptor 1B (Homo sapiens) (P28222 whole entry): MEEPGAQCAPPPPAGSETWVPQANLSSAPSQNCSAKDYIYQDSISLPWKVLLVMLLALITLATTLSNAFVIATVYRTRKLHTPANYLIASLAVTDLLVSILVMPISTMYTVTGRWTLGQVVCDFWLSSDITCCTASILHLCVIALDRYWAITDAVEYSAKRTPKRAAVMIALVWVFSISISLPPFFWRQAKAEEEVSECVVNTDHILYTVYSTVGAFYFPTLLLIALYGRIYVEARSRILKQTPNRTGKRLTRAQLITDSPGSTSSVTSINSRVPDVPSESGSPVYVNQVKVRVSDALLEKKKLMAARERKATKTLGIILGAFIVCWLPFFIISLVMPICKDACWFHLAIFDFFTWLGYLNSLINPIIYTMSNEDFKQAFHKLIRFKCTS

[13] = biological target: T1, 5-hydroxytryptamine receptor 6; experiment: Inhibition of [3H]LSD binding to cloned human 5-hydroxytryptamine 6 receptor expressed in HeLa cells at 1 uM; type: cell-based
D(2) dopamine receptor [14] = biological target: T3, D(2) dopamine receptor; experiment: Binding affinity against human cloned Dopamine receptor D2 stably expressed in CHO-K1 cells using [3H]spiperone; type: cell-based
D(3) dopamine receptor [15] = biological target: T2, D(3) dopamine receptor; experiment: Binding affinity against human cloned Dopamine receptor D3 stably expressed in CHO-K1 cells using [3H]spiperone; type: cell-based
D(4) dopamine receptor = biological target: T8, D(4) dopamine receptor (Homo sapiens, UniProt P21917); experiment: Binding affinity against human cloned Dopamine receptor D4 stably expressed in CHO-K1 cells using [3H]spiperone; type: cell-based
T8 sequence (P21917 whole entry): T4 sequence (whole entry)

T1 sequence (P50406 whole entry): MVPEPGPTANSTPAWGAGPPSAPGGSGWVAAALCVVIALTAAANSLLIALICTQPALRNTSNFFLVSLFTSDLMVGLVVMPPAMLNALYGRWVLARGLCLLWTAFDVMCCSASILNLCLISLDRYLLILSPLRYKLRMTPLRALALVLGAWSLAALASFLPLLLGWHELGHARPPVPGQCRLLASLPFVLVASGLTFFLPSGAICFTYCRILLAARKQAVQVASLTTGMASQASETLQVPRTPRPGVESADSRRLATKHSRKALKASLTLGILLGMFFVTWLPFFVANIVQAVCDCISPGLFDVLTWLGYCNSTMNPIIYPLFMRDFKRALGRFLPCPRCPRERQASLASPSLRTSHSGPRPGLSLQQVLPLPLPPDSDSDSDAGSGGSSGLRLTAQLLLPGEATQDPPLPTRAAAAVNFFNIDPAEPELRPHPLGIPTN

SMILES | pKi [1] | pIC50 [2] | also measured
CN1CC=C(c2c[nH]c3ccccc23)CC1 | 7.01 | – | –
O=S(=O)(c1ccccc1)n1cc(C2CCNCC2)c2cc(F)ccc21 | 7.70 | – | –
Nc1ccc(S(=O)(=O)n2cc(C3=CCNCC3)c3cc4c(cc32)OCO4)cc1 | 9.00 | 8.77 | –
Nc1ccc(S(=O)(=O)n2cc(C3CCNCC3)c3ccc(Cl)cc32)cc1 | 8.52 | 8.07 | inhibition (D(3) dopamine receptor [3]): 7%; inhibition (D(2) dopamine receptor [4]): 10%; pKi [5]: < 5.70; inhibition [6]: 7%; inhibition [7]: 16%; pKi [8]: 6.94; inhibition [9]: 65%; inhibition [10]: 15%; inhibition [11]: 10%; inhibition [12]: 30%
CN1CC=C(c2cn(S(=O)(=O)c3ccccc3)c3ccccc23)CC1 | 8.70 | 7.86 | –
CN1CC=C(c2cn(C(=O)c3ccccc3)c3ccccc23)CC1 | 7.00 | – | –
O=S(=O)(c1ccc(C(F)(F)F)cc1)n1cc(C2=CCNCC2)c2ccccc21 | 7.70 | – | –
CCCCS(=O)(=O)n1cc(C2=CCNCC2)c2ccccc21 | 7.11 | – | –
O=S(=O)(c1ccc(Cl)cc1)n1cc(C2=CCNCC2)c2cc(F)ccc21 | 7.85 | – | –
CN1CC=C(c2cn(S(=O)(=O)c3ccccc3Cl)c3ccccc23)CC1 | 8.00 | 9.15 | –
O=S(=O)(c1nccc2sncc12)n1cc(C2=CCNCC2)c2ccccc21 | 8.30 | 6.77 | –
Nc1ccc(S(=O)(=O)n2cc(C3=CCNCC3)c3ccccc32)cc1 | 8.70 | 9.10 | pKi [5]: 5.81; pKi [8]: 5.78; inhibition [12]: 33%
O=S(=O)(c1ccccc1)n1cc(C2=CCNCC2)c2ccccc21 | 8.70 | 7.37 | –
O=S(=O)(c1ccc(Cl)s1)n1cc(C2=CCNCC2)c2ccccc21 | 8.52 | 7.85 | –
CC(C)(C)OC(=O)N1CC=C(c2cn(S(=O)(=O)c3ccccc3)c3ccccc23)CC1 | 7.27 | – | –
COc1ccc2c(c1)c(C1=CCNCC1)cn2S(=O)(=O)c1ccc(N)cc1 | 8.52 | 9.40 | pKi [5]: < 5.30; pKi [8]: 7.01; inhibition [11]: 32%; inhibition [12]: 27%
CC(=O)N1CC=C(c2cn(S(=O)(=O)c3ccccc3)c3ccccc23)CC1 | – | – | inhibition [13]: 64%
Nc1ccc(S(=O)(=O)n2cc(C3=CCNCC3)c3ccc([N+](=O)[O-])cc32)cc1 | 7.51 | – | –
O=S(=O)(c1ccccc1)n1cc(C2=CCN(Cc3ccccc3)CC2)c2ccccc21 | 6.61 | – | –

SMILES | pKi [1] | pIC50 [2] | also measured
CN1CC=C(c2cn(S(=O)(=O)c3ccccc3F)c3ccccc23)CC1 | 8.00 | 8.41 | –
O=S(=O)(c1ccccc1)n1cc(C2=CCNCC2)c2cc(F)ccc21 | 8.62 | – | –
CN1CC=C(c2cn(S(=O)(=O)c3ccc(F)cc3)c3ccccc23)CC1 | 8.30 | 7.37 | –
O=S(=O)(c1ccccc1F)n1cc(C2=CCNCC2)c2ccccc21 | 9.00 | 8.57 | pKi (D(2) dopamine receptor [14]): < 5.70; inhibition [7]: 53%; pKi (D(3) dopamine receptor [15]): 6.13; pKi [8]: 6.06; pKi (D(4) dopamine receptor): < 5.30; inhibition [9]: 50%; inhibition [10]: 57%; inhibition [11]: 9%; inhibition [12]: 11%
Nc1ccc(S(=O)(=O)n2cc(C3=CCNCC3)c3cc([N+](=O)[O-])ccc32)cc1 | 7.54 | – | –
Nc1ccc(S(=O)(=O)n2cc(C3CCNCC3)c3cc(F)ccc32)cc1 | 8.70 | 8.89 | –
CN1CC=C(c2cn(S(=O)(=O)c3cccc(Cl)c3)c3ccccc23)CC1 | 9.00 | 8.03 | –
Nc1ccc(S(=O)(=O)n2cc(C3=CCNCC3)c3ccc(Cl)cc32)cc1 | 8.52 | 7.95 | –
Nc1ccc(S(=O)(=O)n2cc(C3=CCNCC3)c3cc(OCc4ccccc4)ccc32)cc1 | 7.30 | – | –
COc1ccc2c(c1)c(C1=CCNCC1)cn2S(=O)(=O)c1ccc2ccccc2c1 | 7.72 | 8.39 | –
CN1CC=C(c2cn(C(=O)Nc3ccccc3)c3ccccc23)CC1 | 6.93 | – | –
O=S(=O)(c1cccc2ccccc12)n1cc(C2=CCNCC2)c2cc(F)ccc21 | 8.40 | 8.05 | –
COc1ccc(S(=O)(=O)n2cc(C3=CCNCC3)c3ccccc32)cc1 | 7.74 | – | –
O=S(=O)(c1ccc2ccccc2c1)n1cc(C2=CCNCC2)c2ccccc21 | 7.57 | – | –
Nc1ccc(S(=O)(=O)n2cc(C3=CCNCC3)c3cc(F)ccc32)cc1 | 9.00 | 8.01 | –
Nc1ccc(S(=O)(=O)n2cc(C3=CCNCC3)c3cc(Br)ccc32)cc1 | 8.15 | 7.47 | –
O=S(=O)(c1ccc(F)cc1)n1cc(C2=CCNCC2)c2cc(F)ccc21 | 8.52 | 7.51 | –
O=S(=O)(c1ccccc1)n1cc(C2CCNCC2)c2ccccc21 | 7.92 | 7.71 | –

Reference: ChEMBL document CHEMBL1141885, “N1-arylsulfonyl-3-(1,2,3,6-tetrahydropyridin-4-yl)-1H-indole derivatives are potent and selective 5-HT6 receptor antagonists” (Bioorg Med Chem Lett, 2005)
